From PubChem BioAssay (NCI)
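Step 1: Grow cells in 96-well plates. Step 2: Expose to compound for 48 hours at 5 concentrations. Step 3: Interpolate endpoints linearly; if unreached, use highest concentration. TGI: concentration producing complete growth inhibition.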

What was measured:
Experiment in all cases: NCI anticancer screen, dose series, 48 h
[1] = test system: 786-0 renal
[2] = test system: SF-295 CNS
[3] = test system: HL-60(TB) leukemia
[4] = test system: TK-10 renal
[5] = test system: SF-268 CNS
[6] = test system: SK-MEL-5 melanoma
[7] = test system: EKVX NSCLC
[8] = test system: MALME-3M melanoma
[9] = test system: NCI-H522 lung
[10] = test system: UACC-62 melanoma
[11] = test system: M14 melanoma
[12] = test system: NCI-H23 lung
[13] = test system: HCC-2998 colon
[14] = test system: RPMI-8226 leukemia
[15] = test system: LXFL 529 NSCLC
[16] = test system: NCI-H226 lung
[17] = test system: KM20L2 colon
[18] = test system: XF 498 CNS
[19] = test system: UO-31 renal
[20] = test system: RXF 393 renal
[21] = test system: DMS 273 small cell lung
[22] = test system: K-562 leukemia
[23] = test system: LOX IMVI melanoma
[24] = test system: SNB-19 CNS
[25] = test system: SNB-78 CNS
[26] = test system: OVCAR-3 ovarian
[27] = test system: HT29 colon
[28] = test system: CCRF-CEM leukemia
[29] = test system: SN12C renal
[30] = test system: DMS 114 small cell lung
[31] = test system: DLD-1 colon
[32] = test system: SK-MEL-2 melanoma
[33] = test system: OVCAR-8 ovarian
[34] = test system: U251 CNS
[35] = test system: M19-MEL melanoma
[36] = test system: HCT-116 colon
[37] = test system: UACC-257 melanoma
[38] = test system: A498 renal
[39] = test system: IGROV1 ovarian
[40] = test system: KM12 colon
[41] = test system: COLO 205 colon
[42] = test system: SNB-75 CNS
[43] = test system: HOP-62 NSCLC
[44] = test system: CAKI-1 renal
[45] = test system: SK-OV-3 ovarian
[46] = test system: A549 NSCLC
[47] = test system: SF-539 CNS
[48] = test system: SW-620 colon
[49] = test system: OVCAR-5 ovarian
[50] = test system: ACHN renal
[51] = test system: MOLT-4 leukemia
[52] = test system: NCI-H460 lung
[53] = test system: SR leukemia
[54] = test system: HCT-15 colon
[55] = test system: SK-MEL-28 melanoma
[56] = test system: HOP-18 NSCLC
[57] = test system: OVCAR-4 ovarian
[58] = test system: HOP-92 NSCLC

SMILES: N=C1CSC2=NC3=C(CCC/C3=C\c3ccccc3)C(c3ccccc3)N12 (configuration not stated)
- TGI [1]: 18.3 µM
- TGI [2]: 19.4 µM
- TGI [3]: 6.3 µM
- TGI [4]: 18.1 µM
- TGI [5]: 32.9 µM
- TGI [6]: 19.3 µM
- TGI [7]: 9.54 µM
- TGI [8]: 39.3 µM
- TGI [9]: 9.71 µM
- TGI [10]: 23 µM
- TGI [11]: 13 µM
- TGI [12]: 15.6 µM
- TGI [13]: 10.6 µM
- TGI [14]: 5.57 µM
- TGI [15]: 17 µM
- TGI [16]: 35.1 µM
- TGI [17]: 16.8 µM
- TGI [18]: 35.1 µM
- TGI [19]: 27.4 µM
- TGI [20]: 17.4 µM
- TGI [21]: 15.8 µM
- TGI [22]: 18.4 µM
- TGI [23]: 4.96 µM
- TGI [24]: 19.9 µM
- TGI [25]: 23.6 µM
- TGI [26]: 8.24 µM
- TGI [27]: 11.5 µM
- TGI [28]: 8.61 µM
- TGI [29]: 27.9 µM
- TGI [30]: 8.57 µM
- TGI [31]: 19.4 µM
- TGI [32]: 5.56 µM
- TGI [33]: 19.5 µM
- TGI [34]: 13.6 µM
- TGI [35]: 18.3 µM
- TGI [36]: 13.2 µM
- TGI [37]: 30 µM
- TGI [38]: 27.6 µM
- TGI [39]: 20.1 µM
- TGI [40]: 13 µM
- TGI [41]: 21.3 µM
- TGI [42]: 23.7 µM
- TGI [43]: 25.6 µM
- TGI [44]: 29.2 µM
- TGI [45]: 28.4 µM
- TGI [46]: 19.1 µM
- TGI [47]: 20 µM
- TGI [48]: 15.2 µM
- TGI [49]: 20.1 µM
- TGI [50]: 24.8 µM
- TGI [51]: 8.03 µM
- TGI [52]: 14.7 µM

SMILES: COc1cc(C2c3cc4c(cc3C(NCC(O)CO)C3COC(=O)[C@H]23)OCO4)cc(OC)c1OC (some centres not stated)
- TGI [1]: > 100 µM
- TGI [53]: > 100 µM
- TGI [3]: 0.543 µM
- TGI [4]: > 100 µM
- TGI [5]: > 100 µM
- TGI [7]: > 100 µM
- TGI [8]: > 100 µM
- TGI [10]: > 100 µM
- TGI [11]: > 100 µM
- TGI [12]: 0.797 µM
- TGI [13]: > 100 µM
- TGI [14]: > 100 µM
- TGI [54]: > 100 µM
- TGI [15]: > 100 µM
- TGI [16]: 0.655 µM
- TGI [18]: > 100 µM
- TGI [19]: > 100 µM
- TGI [22]: > 100 µM
- TGI [55]: > 100 µM
- TGI [23]: > 100 µM
- TGI [24]: > 100 µM
- TGI [25]: > 100 µM
- TGI [56]: > 100 µM
- TGI [27]: > 100 µM
- TGI [28]: > 100 µM
- TGI [29]: > 100 µM
- TGI [30]: 0.245 µM
- TGI [31]: > 100 µM
- TGI [33]: > 100 µM
- TGI [34]: 0.766 µM
- TGI [35]: > 100 µM
- TGI [37]: > 100 µM
- TGI [39]: > 100 µM
- TGI [40]: > 100 µM
- TGI [41]: 0.364 µM
- TGI [42]: > 100 µM
- TGI [43]: 0.676 µM
- TGI [45]: > 100 µM
- TGI [47]: 0.344 µM
- TGI [48]: > 100 µM
- TGI [49]: > 100 µM
- TGI [50]: > 100 µM
- TGI [51]: > 100 µM

SMILES: CCCCCCCCCCCC(=O)CC(=O)c1c(O)cccc1O
- TGI [1]: 39.4 µM
- TGI [53]: 45.8 µM
- TGI [2]: 34.8 µM
- TGI [3]: > 100 µM
- TGI [4]: 57.5 µM
- TGI [5]: 33 µM
- TGI [6]: 35.6 µM
- TGI [7]: 33.4 µM
- TGI [8]: 32.6 µM
- TGI [9]: 65.3 µM
- TGI [10]: 90.1 µM
- TGI [11]: 32.9 µM
- TGI [12]: 41.9 µM
- TGI [13]: 82.9 µM
- TGI [14]: 43.9 µM
- TGI [54]: 47.4 µM
- TGI [15]: 32.2 µM
- TGI [16]: 32.1 µM
- TGI [17]: 43.8 µM
- TGI [57]: 34.1 µM
- TGI [18]: 33.3 µM
- TGI [19]: 29.3 µM
- TGI [20]: 34.5 µM
- TGI [21]: 32.6 µM
- TGI [22]: 76.4 µM
- TGI [55]: 44.1 µM
- TGI [23]: 32 µM
- TGI [24]: 36.8 µM
- TGI [25]: 41 µM
- TGI [56]: 36.7 µM
- TGI [26]: 34.4 µM
- TGI [27]: 33.7 µM
- TGI [28]: > 100 µM
- TGI [29]: 33.6 µM
- TGI [30]: 34.6 µM
- TGI [31]: 32.4 µM
- TGI [32]: 31 µM
- TGI [33]: 30.6 µM
- TGI [34]: 31.5 µM
- TGI [35]: 34.2 µM
- TGI [36]: 31.1 µM
- TGI [37]: 34.5 µM
- TGI [58]: 39 µM
- TGI [39]: 36.4 µM
- TGI [40]: 31.2 µM
- TGI [41]: 31.2 µM
- TGI [42]: 36.5 µM
- TGI [43]: 48.9 µM
- TGI [45]: 95.5 µM
- TGI [46]: 33.1 µM
- TGI [47]: 35.5 µM
- TGI [48]: 31 µM
- TGI [49]: 36.4 µM
- TGI [50]: 35.2 µM
- TGI [51]: 41.9 µM
- TGI [52]: 35.7 µM

SMILES: COC(=O)C(CCC#N)(CCC#N)C(=O)OC
- TGI [1]: > 100 µM
- TGI [53]: > 100 µM
- TGI [2]: > 100 µM
- TGI [3]: > 100 µM
- TGI [5]: > 100 µM
- TGI [6]: > 100 µM
- TGI [7]: > 100 µM
- TGI [8]: > 100 µM
- TGI [9]: > 100 µM
- TGI [10]: > 100 µM
- TGI [11]: > 100 µM
- TGI [12]: > 100 µM
- TGI [13]: > 100 µM
- TGI [14]: > 100 µM
- TGI [54]: > 100 µM
- TGI [15]: > 100 µM
- TGI [16]: > 100 µM
- TGI [17]: > 100 µM
- TGI [18]: > 100 µM
- TGI [19]: > 100 µM
- TGI [21]: > 100 µM
- TGI [22]: > 100 µM
- TGI [55]: > 100 µM
- TGI [23]: > 100 µM
- TGI [24]: > 100 µM
- TGI [26]: > 100 µM
- TGI [27]: > 100 µM
- TGI [28]: > 100 µM
- TGI [29]: > 100 µM
- TGI [30]: > 100 µM
- TGI [33]: > 100 µM
- TGI [34]: > 100 µM
- TGI [35]: > 100 µM
- TGI [36]: > 100 µM
- TGI [37]: > 100 µM
- TGI [39]: > 100 µM
- TGI [40]: > 100 µM
- TGI [41]: > 100 µM
- TGI [43]: > 100 µM
- TGI [45]: > 100 µM
- TGI [46]: > 100 µM
- TGI [47]: > 100 µM
- TGI [48]: > 100 µM
- TGI [50]: > 100 µM
- TGI [51]: > 100 µM
- TGI [52]: > 100 µM
